Laboratory results taken from patent US6545182B2, “Methods and compositions for modulating alpha adrenergic receptor activity” (Allergan Sales, Inc., priority 2000, dated 2003).

What was measured:
Format in all cases: cell-based
[1] = biological target: T1, alpha 2A adrenergic receptor (Homo sapiens, UniProt P08913); test: RSAT (Receptor Selection and Amplification Technology) assay, alpha 2A; settings: for EC50: NIH-3T3 cells cotransfected with receptor and Gq/i5; for efficacy or intrinsic activity (value in parentheses) Alpha 2A: ratio of maximal effect to that of standard full agonist brimonidine
T1 construct: expressed in transfected cells; host or cells: NIH-3T3 cells, transient cotransfection by calcium phosphate
T1 sequence (P08913 1-465): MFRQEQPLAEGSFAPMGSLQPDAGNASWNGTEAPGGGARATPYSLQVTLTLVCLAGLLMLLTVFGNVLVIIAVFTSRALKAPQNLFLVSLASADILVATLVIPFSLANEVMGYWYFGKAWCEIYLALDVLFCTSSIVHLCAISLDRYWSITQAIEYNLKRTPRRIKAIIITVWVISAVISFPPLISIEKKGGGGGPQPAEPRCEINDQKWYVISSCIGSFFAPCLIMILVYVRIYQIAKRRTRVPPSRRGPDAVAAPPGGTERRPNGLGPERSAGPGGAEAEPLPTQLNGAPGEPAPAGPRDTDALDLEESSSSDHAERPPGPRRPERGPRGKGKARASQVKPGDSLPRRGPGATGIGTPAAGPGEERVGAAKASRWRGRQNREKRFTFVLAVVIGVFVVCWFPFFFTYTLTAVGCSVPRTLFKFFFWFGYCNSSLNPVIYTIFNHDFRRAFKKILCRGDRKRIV
Procedure: (§1) Activity was measured using the RSAT (Receptor Selection and Amplification Technology) assay, developed by Receptor Technologies, Inc. of Winooski, Vt. (now Acadia Pharmaceuticals of San Diego, Calif.), adapted for use with recombinant alpha2 adrenergic receptors in collaboration with Allergan. The assay measures receptor-mediated loss of contact inhibition that results in selective proliferation of receptor-containing cells in a mixed population of confluent cells. The increase in cell number is assessed with an appropriate transfected marker gene such as β-galactosidase, the activity of which can be easily measured in a 96-well format. Receptors that activate the G protein, Gq, elicit this response. Alpha2 receptors, which normally couple to Gi, activate the RSAT response when coexpressed with a hybrid Gq protein that has a Gi receptor recognition domain, called Gq/i5.
(§2) The assay is conducted as follows. NIH-3T3 cells are plated at a density of 2×10^6 cells in 15 cm dishes and maintained in Dulbecco's modified Eagle's medium supplemented with 10% calf serum. One day later, cells are cotransfected by calcium phosphate precipitation with mammalian expression plasmids encoding p-SV-β-galactosidase (5-10 μg), receptor (1-2 μg) and G protein (1-2 μg). 40 μg salmon sperm DNA may also be included in the transfection mixture to increase transfection efficiency. Fresh media is added on the following day and 1-2 days later, cells are harvested and frozen in 50 assay aliquots. Transfectant cells are thawed and 100 μl added to 100 μl aliquots of various concentrations of drugs in triplicate in 96-well dishes. Incubations continue 72-96 hr at 37°. After washing with phosphate-buffered saline, β-galactosidase enzyme activity is determined by adding 200 μl of the chromogenic substrate (consisting of 3.5 mM o-nitrophenyl-β-D-galactopyranoside and 0.5% of the non-ionic surfactant nonidet P-40 in phosphate buffered saline), incubating overnight at 30° and measuring optical density at 420 nm. The absorbency is a measure of enzyme activity, which depends on cell number and reflects a receptor-mediated cell proliferation. The EC50 and maximal effect of each drug at each alpha2 receptor is determined. The efficacy or intrinsic activity is calculated as a ratio of the maximal effect of the drug to the maximal effect of a standard full agonist for each receptor subtype. Brimonidine, also called UK14304, is used as the standard agonist for the alpha2A, alpha2B and alpha2C receptors. The RSAT assay is also discussed in Messier et al. (1995) High throughput assays of cloned adrenergic, muscarinic, neurokinin and neurotrophin receptors in living mammalian cells, Pharmacol. Toxicol. 76:308-11; see also Conklin et al. (1993) Substitution of three amino acids switches receptor specificity of Gqα to that of Giα, Nature 363:274-6; Both of these papers are incorporated by reference herein.

[2] = biological target: T2, alpha 2B adrenergic receptor (Homo sapiens, UniProt P18089); test: RSAT (Receptor Selection and Amplification Technology) assay, alpha 2B; settings: for EC50: NIH-3T3 cells cotransfected with receptor and Gq/i5; for efficacy or intrinsic activity (value in parentheses) Alpha 2B: ratio of maximal effect to that of standard full agonist brimonidine
T2 construct: expressed in transfected cells; host or cells: NIH-3T3 cells, transient cotransfection by calcium phosphate
T2 sequence (P18089 1-450): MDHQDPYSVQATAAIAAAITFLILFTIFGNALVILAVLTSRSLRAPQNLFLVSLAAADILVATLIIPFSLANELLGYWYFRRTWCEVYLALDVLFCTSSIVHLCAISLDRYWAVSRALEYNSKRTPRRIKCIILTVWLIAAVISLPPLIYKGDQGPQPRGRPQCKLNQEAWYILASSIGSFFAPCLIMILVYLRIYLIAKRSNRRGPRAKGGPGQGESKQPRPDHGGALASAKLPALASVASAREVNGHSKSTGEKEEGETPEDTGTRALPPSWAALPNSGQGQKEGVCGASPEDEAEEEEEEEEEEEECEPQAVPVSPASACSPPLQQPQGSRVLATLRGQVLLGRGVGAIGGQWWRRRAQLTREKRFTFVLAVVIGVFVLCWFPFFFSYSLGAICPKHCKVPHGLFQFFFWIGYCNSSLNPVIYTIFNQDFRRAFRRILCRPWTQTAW
Procedure: as §1, §2

[3] = biological target: T3, alpha 2C adrenergic receptor (Homo sapiens, UniProt P18825); test: RSAT (Receptor Selection and Amplification Technology) assay, alpha 2C; settings: for EC50: NIH-3T3 cells cotransfected with receptor and Gq/i5; for efficacy or intrinsic activity (value in parentheses) Alpha 2C: ratio of maximal effect to that of standard full agonist brimonidine
T3 construct: expressed in transfected cells; host or cells: NIH-3T3 cells, transient cotransfection by calcium phosphate
T3 sequence (P18825 1-462): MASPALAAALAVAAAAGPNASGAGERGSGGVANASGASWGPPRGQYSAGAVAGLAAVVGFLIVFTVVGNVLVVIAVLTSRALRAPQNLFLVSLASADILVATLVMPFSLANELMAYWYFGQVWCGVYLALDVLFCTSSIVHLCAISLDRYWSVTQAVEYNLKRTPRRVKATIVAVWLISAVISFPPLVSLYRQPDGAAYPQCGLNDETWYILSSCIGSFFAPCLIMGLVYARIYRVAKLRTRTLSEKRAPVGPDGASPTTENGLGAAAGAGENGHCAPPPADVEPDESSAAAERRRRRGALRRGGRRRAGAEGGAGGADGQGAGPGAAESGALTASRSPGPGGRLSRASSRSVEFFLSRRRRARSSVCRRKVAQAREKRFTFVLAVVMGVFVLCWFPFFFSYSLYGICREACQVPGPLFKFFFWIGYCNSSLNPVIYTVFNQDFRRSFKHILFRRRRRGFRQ
Procedure: as §1, §2

SMILES | EC50 [1] | EC50 [2] | efficacy or intrinsic activity (value in parentheses) Alpha 2B [2] | EC50 [3] | efficacy or intrinsic activity (value in parentheses) Alpha 2C [3] | efficacy or intrinsic activity (value in parentheses) Alpha 2A [1]
OCCNC(=S)NCc1c(F)cccc1F | ≥ 210000 nM | 462 nM | 0.45 | 5060 nM | 0.4 | –
COc1ccc(F)c(CNC(=S)NCCO)c1 | ≥ 210000 nM | 282 nM | 0.91 | – | – | –
Cc1ccc(F)c(CNC(=S)NCCO)c1 | ≥ 210000 nM | 95 nM | 0.91 | – | – | –
OCCNC(=S)NCc1c(F)ccc(Br)c1F | ≥ 210000 nM | 205 nM | 0.81 | – | – | –
OCCNC(=S)NCc1cc(Br)ccc1Cl | ≥ 210000 nM | 50 nM | 0.78 | – | – | –
OCCNC(=S)NCc1cc(Cl)ccc1Br | ≥ 210000 nM | 25 nM | 0.82 | – | – | –
OCCNC(=S)NCc1cc(F)c(F)cc1F | ≥ 210000 nM | 271 nM | 0.48 | – | – | –
OCCNC(=S)NCc1cccc(C(F)(F)F)c1Cl | ≥ 210000 nM | 33 nM | 1.1 | – | – | –
OCCNC(=S)NCc1cc(Cl)cc(Cl)c1F | ≥ 210000 nM | 118 nM | 0.92 | – | – | –
Cc1ccc(Br)c(F)c1CNC(=S)NCCO | ≥ 210000 nM | 181 nM | 0.95 | > 2000 nM | – | –
OCCNC(=S)NCc1cc(Cl)ccc1F | ≥ 210000 nM | 17 nM | 1.13 | 87 nM | 0.6 | –
OCCNC(=S)NCc1c(F)ccc(F)c1Cl | ≥ 210000 nM | 44 nM | 0.94 | 1850 nM | 0.54 | –
OCCNC(=S)NCc1ccccc1I | ≥ 210000 nM | 21 nM | 1.26 | 226 nM | 0.7 | –
OCCNC(=S)NCc1cccc(I)c1 | 63 nM | 30 nM | 1.16 | 232 nM | 0.58 | 0.42
OCCNC(=S)NCc1cc(F)ccc1F | ≥ 210000 nM | 13 nM | 0.85 | 53 nM | 0.51 | –
OCCNC(=S)NCc1c(F)c(F)c(F)c(F)c1F | ≥ 210000 nM | 2360 nM | 0.73 | ≥ 210000 nM | – | –
OCCNC(=S)NCc1ccc(F)cc1C(F)(F)F | ≥ 210000 nM | 478 nM | 0.72 | > 2000 nM | – | –
COc1cccc(F)c1CNC(=S)NCCO | ≥ 210000 nM | 235 nM | 0.92 | 406 nM | 0.43 | –
COc1ccc(F)cc1CNC(=S)NCCO | 930 nM | 9 nM | 0.96 | 45 nM | 0.78 | 0.39
OCCNC(=S)NCc1c(F)cccc1C(F)(F)F | ≥ 210000 nM | 137 nM | 0.68 | 617 nM | 0.37 | –
OCCNC(=S)NCc1c(F)ccc(Cl)c1Cl | ≥ 210000 nM | 30 nM | 0.75 | 238 nM | 0.34 | –
OCCNC(=S)NCc1cc(C(F)(F)F)ccc1F | ≥ 210000 nM | 523 nM | 0.8 | 853 nM | 0.7 | –
Cc1cc(Cl)c(F)c(CNC(=S)NCCO)c1 | 546 nM | 62 nM | 1.06 | 278 nM | 0.66 | 0.31
OCCNC(=S)NCc1c(Cl)ccc(Cl)c1F | ≥ 210000 nM | 89 nM | 0.92 | 1420 nM | 0.78 | –
